Patent US20110027185A1, “Methods of Screening for Anti-Angiogenic Compounds” (priority 2007, published 2011)

Tests used:
[1] = system: VEGFxxx and VEGFxxxb expression in RPE cells; experiment: VEGF isoform ELISA of media of treated RPE cells; format: cell-based; settings: 0.5 μM or 5 μM, 72 hours
Protocol: Media was sampled after 72 hours treatment, and assessed for total VEGF and VEGFxxxb expression (see Bates et al., 2002, Woolard et al., 2004 and Varey et al., 2008 for methods).

[2] = system: VEGFxxxb and total VEGF in RPE cells; experiment: Dose dependent effect on VEGF in RPE cell lysate (ELISA, Western blot); format: cell-based; settings: 24 hours
Protocol: FIG. 7: Comparison of the effect of compound 5 on the VEGF levels by ELISA. RPE cells were treated with increasing concentrations of compound 5 for 24 hours and the VEGFxxxb and total VEGF concentrations measured by ELISA. **p<0.05, Dunnett's, **p<0.01, 95% confidence interval, alpha=0.05, N=3.
FIG. 8: (A) Western Blot analysis of the cell lysate for expression of VEGF165b. Primary antibody: 56/1 mouse anti-h antibody (200 μg/ml, 1:250 dilution) and secondary antibody: Goat anti-mouse antibody (1:7000 dilution).
RPE cell lysate was extracted after 24 hours incubation with increasing concentrations of compound 5. VEGFxxxb and VEGFxxx levels were then analysed by ELISA (see Bates et al., 2002, Woolard et al., 2004 and Varey et al., 2008 for methods). These levels were compared to total cell protein levels.

[3] = system: FBP21 in RPE cells; experiment: VEGFxxxb levels in RPE cells transfected with FBP21 construct; format: cell-based, human; settings: pWV327 vs pOriGene-FBP21 control, 7 uM, 24 hours
Protocol: (§1) pOriGene-FBP21 (FIG. 9A, SEQ ID No. 5) was purchased from Origene. This construct contains the cDNA for the human FBP21 gene. Due to the presence in this contruct of non-essential DNA which would have disrupted the expression of FBP21, a three part ligation was carried out to remove this DNA. This generated pWV327 (FIG. 9B, SEQ ID No. 6).
(§2) Both RPE and HEK cells were transfected with either pOriGene-FBP21 (as a control, due to the lack of FBP21 expression) or pWV327 (for overexpression of FBP21), using standard techniques. These cell lines were then treated with compound 5 (7 uM) or untreated, and VEGFxxxb levels analysed after 24 hours. FIGS. 10A, B and C show the results of this analysis.

[4] = system: FBP21 in HEK cells; experiment: VEGFxxxb levels in HEK cells transfected with FBP21 construct; format: cell-based, human; settings: pWV327 vs pOriGene-FBP21 control, 7 uM, 24 hours
Protocol: as §1, §2

[5] = system: retinal neovascularisation; experiment: Mouse Retinopathy of Prematurity (ROP) oxygen induced retinopathy model; format: in vivo; settings: for neovascularisation compared with contralateral eye: day 17, p<0.01 paired t-test
Protocol: Evidence that compound 5, a borrelidin analogue which affects splicing of VEGF through FBP21, affects angiogenesis was gained from an in vivo mouse model, […] (ROP), which mimics some of the processes in Age-related Macular Degeneration and other eye diseases where neovascularisation is associated with disease progression.
Compound 5 was dosed at two concentrations, 0.5 μM and 5 μM, in a mouse Retinopathy of Prematurity (ROP) model (see Konopatskaya et al., 2006 for methods). Oxygen induced retinopathy was induced by placing the mice at 75% oxygen from day 7 to day 12 post birth and then removing them to normal room air. Mice were injected with either vehicle (0.02% DMSO in HBSS) or 0.5 μM or 5 μM compound 5 into one eye, and the other left uninjected (contralateral). At day 17 mice were killed, retinas removed and stained for endothelial cells with isolectin (FIG. 11).

CC1CC(C)CC(C)C(O)C(C#N)=CC=CCC(C2CCC2C(=O)O)OC(=O)CC(O)C(C)C1 (stereo not drawn) [compound 5, 17-des-(cyclopentane-2′-carboxylic acid)-17-(cyclobutane-2′-carboxylic acid) borrelidin]
VEGFxxx expression (ELISA) [1]: significant downregulation | VEGFxxxb expression (ELISA) [1]: significant upregulation | increase in VEGFxxxb levels versus control ([2]; 5 μM): statistically higher than those of the control | total VEGF levels (ELISA) ([2]; increasing concentrations): dose dependent decrease | effect on VEGFxxxb levels after FBP21 transfection [3]: FBP21 transfection reduced the effect | effect on VEGFxxxb levels after FBP21 transfection [4]: FBP21 transfection reduced the effect | percentage neovascularisation compared to vehicle and the 5 μM dose ([5]; 0.5 μM injected into one eye): significantly inhibited | neovascularisation compared with contralateral eye ([5]; 0.5 μM injected into one eye): significant reduction | neovascularisation compared with contralateral eye ([5]; 5 μM injected into one eye): significant reduction
